pEC50, pIC50: −log10 of the molar value. Several values for one entry are separate records, joined by “and”; a condition that tells them apart may be missing. Equal entries are not always repeated.
What was measured:
MTT cytotoxic assay = type: cell-based, mouse; details: mouse; restated; read-out: IC50 (lymphocyte cytotoxicity, restated)
Method: (§1) Mice were sacrificed by cervical dislocation, and spleens were collected under sterile conditions then teased through a nylon mesh. Erythrocytes were lysed. Cells were washed and resuspended at 5×10^6/ml in RPMI-1640 media supplemented with 10% FBS.
(§2) For one 96 well plate assay, 90 μl of cells, 45 μl of sample and 45 μl of RPMI-1640 media with 10% FBS were added into each well with the final volume 180 μl. The negative control wells (containing 90 μl of RPMI-1640 media with 10% FBS and 90 pt of cells), blank control (180 μl of RPMI-1640 media with 10% FBS) were also performed. Incubate plate for 48 hours at 37° C., 5% CO2 in a humidified incubator. 18 μl of MTT solution (5 mg/ml) was added for 6-7 h.
(§3) 90 μl of MTT lysis solution was added to each well followed by a further incubation at 37° C. for 6-7 h. And the absorbance was measured at 570 nm using a plate reader.

lymphocyte = assay: MTT cytotoxic assay; type: cell-based, mouse; details: Lymphocyte, read-out: IC50 (concentration required to reduce the viability of cells by 50%); mouse spleen cells, 48 hours, MTT
Method: as §1, §2, §3

T lymphocyte = assay: ConA induced T-lymphocyte proliferation ([3H]thymidine); type: cell-based, mouse; details: 48 h
Method: (§4) Mice were sacrificed by cervical dislocation, and spleens were collected under sterile conditions then teased through a nylon mesh. Erythrocytes were lysed. Cells were washed and resuspended at 5×10^6/ml in RPMI-1640 media containing 10% FBS. For one 96 well plate assay, 100 pt of cells, 50 μl of sample and 50 μl of ConA/LPS were added into each well with the final volume 200 μl. The control wells were set up with 50 μl of RPMI-1640 media instead of ConA/LPS.
(§5) Plates were incubated for 48 h (ConA) or 60 h (LPS), respectively, at 37° C., 5% CO2 in a humidified incubator. In the last 8 h of incubation, 25 μl (1.9×10^10 Bq) of [^3H]thymidine was added. After plates were incubated for 48 h, the plates (ConA) were stored at −20° C., then after another 12 h, the plates (LPS) were stored at −20° C.
(§6) At the end of incubation, pulsed cells were harvested on a glass filter using a cell harvester ([…]96®, TOMTEC) and allowed to dry. Incorporation of radioactive thymidine was determined by using liquid Scintillation and Luminescence Counters (MicroBeta Trilux®, PerkinElmer).

B lymphocyte = assay: LPS induced B-lymphocyte proliferation ([3H]thymidine); type: cell-based, mouse; details: 60 h
Method: as §4, §5, §6

[1] = tested on: DNFB-induced mouse DTH response; assay: DNFB-induced mouse delayed type hypersensitivity response (DTH); type: in vivo; details: Balb/c mice
Method: Female Balb/c mice (age of 6-8 wk) were randomly divided into groups and immunized with 20 μl 0.5% DNFB solution in absolute acetone-olive oil (4:1) on each hind foot on day 0 and 1;
7-9 days after the initial immunization, mice were boosted with 10 μl 0.4% DNFB on both sides of the left ear, whereas the right ear was treated with vehicle alone;
Compounds were administered intraperitoneally (i.p.) or orally (p.o.) to the mice 1 h before DNFB booster immunization and 12 h later.
Ear swelling and other indexes were assessed 24-48 h after booster immunization.
Note: Female ICR mice (age of 6-8 wk) were immunized with 0.7% DNFB solution and boosted with 0.6% DNFB solution.

[2] = Acute toxicity (LD50) test in mice, intraperitoneal injection; type: in vivo, mouse; details: mouse, in vivo, ip; mice, single intraperitoneal injection, 14 days, Bliss' method
Method: Mice were single administered with LLDT-8 by intraperitoneal injection, and observed for clinical signs of toxicity immediately and the following 14 days. Necropsy was performed on all animals that died and on all survivors at the end of the 2-week study. Death was seen from the next day after treatment and reached a peak at the 2-4 day. All gross pathological changes should be recorded for each animal. There was no gender difference in survival.
LLDT-8 is much less toxic than its parent compound, […].

## CC(C)[C@]12O[C@H]1[C@@H]1O[C@]13[C@]1(O[C@H]1C[C@H]1C4=C(CC[C@@]13C)C(=O)OC4)[C@@H]2O [LLDT-2, triptolide]
MTT cytotoxic assay
  pIC50: 8.70
lymphocyte
  IC50: 0.00074 µg/mL and 2 nM
T lymphocyte
  ED50 for inhibiting T lymphocyte proliferation induced by ConA: 2.44 ng/mL
T lymphocyte; Mus musculus, T-lymphocyte, read-out: ED50 for inhibiting T lymphocyte proliferation induced by ConA
  pEC50: 8.17
B lymphocyte
  ED50 for inhibiting B lymphocyte proliferation induced by LPS: 2.38 ng/mL
B lymphocyte; Mus musculus, Lymphocyte, read-out: ED50 for inhibiting B lymphocyte proliferation induced by LPS
  pEC50: 8.18
[1]; Table 8, i.p., dosage 40 (mg/kg), control 21.9
  Body weight after i.p.: 21.2 g
[1]; Table 8, i.p., dosage 40 (mg/kg), control 22.4
  Body weight before i.p.: 21.5 g
[1]; Table 8, i.p., dosage 40 (mg/kg), control 22.7 ± 2.1
  Ear swelling X ± SD: 17.7 ± 5.7 mg
[1]; Table 8, i.p., dosage 40 (mg/kg), control 26.4
  Right ear: 30.2 mg
[1]; Table 8, i.p., dosage 40 (mg/kg), control 49.1
  Left ear: 47.9 mg
[1]; Table 8, i.p., dosage 40 (mg/kg), control 154.0
  Spleen: 151.4 mg
[1]; Table 9, p.o., dosage 0.2 mg/kg, control 19
  Body weight after (i.p.): 20 g
[1]; Table 9, p.o., dosage 0.2 mg/kg, control 20
  Body weight before (i.p.): 21 g
[1]; Table 9, p.o., dosage 0.2 mg/kg, control 23.4
  Ear swelling: 16.7 mg
[1]; Table 9, p.o., dosage 0.2 mg/kg, control 25.9
  Right ear: 24.5 mg
[1]; Table 9, p.o., dosage 0.2 mg/kg, control 49.3
  Left ear: 41.2 mg
[1]; Table 9, p.o., dosage 0.2 mg/kg, control 125.8
  Spleen: 127.0 mg
[2]
  LD50 at 14 days: 0.5 mg/kg
